# Laboratory results published in ChEMBL document CHEMBL1201862, “PubChem BioAssay data set” (2004).
# Activity calls are given as the source filed them.
# Tests used:
# [1] = target: T1, Voltage-gated N-type calcium channel alpha-1B subunit/Amyloid beta A4 precursor protein-binding family A member 1 (Homo sapiens, UniProt Q00975+Q02410); type: protein assay
# [2] = target: T1, Voltage-gated N-type calcium channel alpha-1B subunit/Amyloid beta A4 precursor protein-binding family A member 1; type: protein assay; remark: listed apart in the source
# [3] = target: T2, Type-1 angiotensin II receptor (Homo sapiens, UniProt P30556); experiment: AT1 receptor agonists, dose response, selectivity assay for APJ receptor agonist project, cell-based, uHTS hits (AID 488865); type: functional;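 also: beta-arrestin recruitment to AT1 measured by enzyme fragment complementation luminescence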
# T2 sequence (P30556 whole entry): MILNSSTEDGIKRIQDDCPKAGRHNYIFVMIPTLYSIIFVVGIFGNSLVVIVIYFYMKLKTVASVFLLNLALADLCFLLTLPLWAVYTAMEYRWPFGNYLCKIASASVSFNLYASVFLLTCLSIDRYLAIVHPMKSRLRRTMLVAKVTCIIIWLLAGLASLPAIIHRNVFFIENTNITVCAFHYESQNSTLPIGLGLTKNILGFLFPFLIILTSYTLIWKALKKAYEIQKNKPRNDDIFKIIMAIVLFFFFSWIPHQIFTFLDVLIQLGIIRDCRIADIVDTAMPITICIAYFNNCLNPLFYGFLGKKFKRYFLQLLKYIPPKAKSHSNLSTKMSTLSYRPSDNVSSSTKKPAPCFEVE
# H9c2 = experiment: cells; type: functional, cell-based; settings: Rattus norvegicus, H9c2, Myocardium;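 also: confirmatory concentration-response retest of ultra-high-throughput screening hits for modulation of myocardial damage; cell death induced by hydrogen peroxide oxidative stress; compound pretreatment for 60 min then peroxide exposure for 2 h; potency is for protecting the cells against peroxide damage rather than for killing them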
# Mu-type opioid receptor = Mu-type opioid receptor (Homo sapiens, UniProt P35372); experiment: SAR Analysis of Antagonists of the MOR Receptor using an Image-Based Assay - Set 3. [Related pubchem assays (depositor defined):AID1777, AID1785, AID1786, AID1966, AID2133, AID2136, AID2284, AID2285, AID2420]; type: functional
# [4] = target: Delta-type opioid receptor (Homo sapiens, UniProt P41143); experiment: SAR Analysis of Antagonists of the DOR Receptor using an Image-Based Assay - Set 3. [Related pubchem assays (depositor defined):AID1777, AID1785]; type: functional;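 also: U2OS cells expressing DOR1 and beta-arrestin GFP stimulated with 100 nM SNC80; imaging of GFP-tagged beta-arrestin moving into spots after receptor activation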
# Delta-type opioid receptor, sequence (P41143 whole entry): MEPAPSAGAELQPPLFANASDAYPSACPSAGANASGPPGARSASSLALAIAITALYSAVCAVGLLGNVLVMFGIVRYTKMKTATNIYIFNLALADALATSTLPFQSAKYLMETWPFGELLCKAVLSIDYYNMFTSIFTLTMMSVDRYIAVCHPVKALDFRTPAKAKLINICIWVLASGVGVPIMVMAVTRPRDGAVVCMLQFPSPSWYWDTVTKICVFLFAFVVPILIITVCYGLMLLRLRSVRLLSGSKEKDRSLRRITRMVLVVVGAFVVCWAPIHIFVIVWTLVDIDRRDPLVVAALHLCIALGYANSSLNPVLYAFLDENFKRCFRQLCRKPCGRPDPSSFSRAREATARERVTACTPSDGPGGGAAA
# [5] = target: T3, Kappa-type opioid receptor (Homo sapiens, UniProt P41145); experiment: SAR analysis of small molecule antagonists of the kappa opioid receptor via a luminescent beta-arrestin assay - Set 3. [Related pubchem assays (depositor defined):AID1777, AID1778, AID1785, AID1786, AID1966, AID2133, AID2136, AID2285, AID2495]; type: functional
# T3 sequence (P41145 whole entry): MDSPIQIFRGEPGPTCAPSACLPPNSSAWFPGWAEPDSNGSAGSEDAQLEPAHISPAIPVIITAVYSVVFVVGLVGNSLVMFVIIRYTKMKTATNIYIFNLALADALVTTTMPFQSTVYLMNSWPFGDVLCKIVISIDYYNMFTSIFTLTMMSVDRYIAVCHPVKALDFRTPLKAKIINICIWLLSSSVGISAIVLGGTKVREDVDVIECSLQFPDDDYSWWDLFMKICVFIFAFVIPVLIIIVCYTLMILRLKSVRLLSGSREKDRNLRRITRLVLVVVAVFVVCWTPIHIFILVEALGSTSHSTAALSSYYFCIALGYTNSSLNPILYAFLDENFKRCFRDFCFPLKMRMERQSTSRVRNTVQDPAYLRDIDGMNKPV
# [6] = target: T3, Kappa-type opioid receptor; experiment: SAR analysis of Antagonists of the Kappa Opioid Receptor (KOR) using an Image-Based Assay - Set 4. [Related pubchem assays (depositor defined):AID1777, AID1785]; type: functional
# BJ [7] = experiment: cytotoxicity toward BJ-TERT fibroblasts, dose response, cell-based, RAS-independent, luminescence (AID 1933); type: functional; settings: Homo sapiens
# BJ [8] = experiment: cells; type: functional, cell-based; settings: Homo sapiens
# [9] = growth suppression of PTEN-null colon cells, dose response, cell-based, HCT116 PTEN knockout (AID 1047); type: functional;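 also: HCT116 colon tumor cells with PTEN knocked out; cells exposed to compound for 60 hours before readout; potency for loss of cell viability measured by luminescence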
# [10] = growth suppression of beta-catenin-knockout colon cells, dose response, cell-based, HCT116, human colon tumor (AID 1045); type: functional;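 also: HCT116 colon tumor cells with beta catenin knocked out; cells exposed to compound for 60 hours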
# BJ [11] = experiment: cytotoxicity toward BJ-TERT-LT-ST fibroblasts, dose response, cell-based, RAS-independent, luminescence (AID 1935); type: functional; settings: Homo sapiens;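 also: BJ fibroblasts immortalized with TERT plus LT and ST oncogenes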
# [12] = cytotoxicity toward DRD oncogenic fibroblasts, dose response, cell-based, non-viral oncogenic, luminescence (AID 1934); type: functional; settings: Homo sapiens
# [13] = Intein inhibitors as potential Tuberculosis drugs, a cytotoxicity screen. [Related pubchem assays (depositor defined):AID2221, AID2223, AID434968, AID435010, AID449749, AID449750, AID489010]; type: functional
# [14] = target: T4, Replicative DNA helicase DnaB (Mycobacterium tuberculosis, UniProt P9WMR3); experiment: DnaB intein splicing inhibitors, dose response, biochemical, cell-free fluorescence (AID 449749); type: functional
# T4 sequence (P9WMR3 whole entry): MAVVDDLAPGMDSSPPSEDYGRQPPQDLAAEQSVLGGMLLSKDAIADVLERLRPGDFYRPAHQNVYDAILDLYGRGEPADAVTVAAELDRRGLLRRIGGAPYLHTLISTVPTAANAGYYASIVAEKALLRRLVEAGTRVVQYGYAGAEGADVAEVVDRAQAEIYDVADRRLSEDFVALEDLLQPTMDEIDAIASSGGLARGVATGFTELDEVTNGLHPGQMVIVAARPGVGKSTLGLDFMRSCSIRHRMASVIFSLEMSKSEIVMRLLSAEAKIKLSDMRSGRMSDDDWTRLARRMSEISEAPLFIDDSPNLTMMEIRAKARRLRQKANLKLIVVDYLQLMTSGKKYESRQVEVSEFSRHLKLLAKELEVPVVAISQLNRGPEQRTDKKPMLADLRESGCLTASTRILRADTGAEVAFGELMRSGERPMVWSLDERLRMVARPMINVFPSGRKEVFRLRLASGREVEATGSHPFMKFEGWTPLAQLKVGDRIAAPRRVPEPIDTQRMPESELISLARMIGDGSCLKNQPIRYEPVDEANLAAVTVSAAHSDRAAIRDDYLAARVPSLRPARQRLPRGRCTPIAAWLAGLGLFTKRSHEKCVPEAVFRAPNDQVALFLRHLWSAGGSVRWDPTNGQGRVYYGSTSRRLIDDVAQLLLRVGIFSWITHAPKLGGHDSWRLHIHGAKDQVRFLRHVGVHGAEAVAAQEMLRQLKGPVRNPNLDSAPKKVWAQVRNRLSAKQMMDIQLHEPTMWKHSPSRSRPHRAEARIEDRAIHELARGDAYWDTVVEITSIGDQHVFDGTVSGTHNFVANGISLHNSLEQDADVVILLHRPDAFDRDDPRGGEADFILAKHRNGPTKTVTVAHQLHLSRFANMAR
# BJ [15] = experiment: cytotoxicity toward Ras-transformed BJeLR fibroblasts, dose response, cell-based, alamar blue fluorescence, cherrypicked samples (AID 2631); type: functional; settings: Homo sapiens;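 also: confirmatory dose-response assay in RAS-dependent BJ fibroblasts engineered with TERT, LT and ST, with cytotoxicity read by fluorescence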
# Protein RecA = target: T5, Protein RecA (Mycobacterium tuberculosis, UniProt P9WHJ3); experiment: Fluorescence Cell-Free Homogeneous Dose Retest to Identify Inhibitors of RecA-Intein Splicing Activity. [Related pubchem assays (depositor defined):AID2097, AID2223, AID489010, AID492950]; type: functional
# T5 sequence (P9WHJ3 whole entry): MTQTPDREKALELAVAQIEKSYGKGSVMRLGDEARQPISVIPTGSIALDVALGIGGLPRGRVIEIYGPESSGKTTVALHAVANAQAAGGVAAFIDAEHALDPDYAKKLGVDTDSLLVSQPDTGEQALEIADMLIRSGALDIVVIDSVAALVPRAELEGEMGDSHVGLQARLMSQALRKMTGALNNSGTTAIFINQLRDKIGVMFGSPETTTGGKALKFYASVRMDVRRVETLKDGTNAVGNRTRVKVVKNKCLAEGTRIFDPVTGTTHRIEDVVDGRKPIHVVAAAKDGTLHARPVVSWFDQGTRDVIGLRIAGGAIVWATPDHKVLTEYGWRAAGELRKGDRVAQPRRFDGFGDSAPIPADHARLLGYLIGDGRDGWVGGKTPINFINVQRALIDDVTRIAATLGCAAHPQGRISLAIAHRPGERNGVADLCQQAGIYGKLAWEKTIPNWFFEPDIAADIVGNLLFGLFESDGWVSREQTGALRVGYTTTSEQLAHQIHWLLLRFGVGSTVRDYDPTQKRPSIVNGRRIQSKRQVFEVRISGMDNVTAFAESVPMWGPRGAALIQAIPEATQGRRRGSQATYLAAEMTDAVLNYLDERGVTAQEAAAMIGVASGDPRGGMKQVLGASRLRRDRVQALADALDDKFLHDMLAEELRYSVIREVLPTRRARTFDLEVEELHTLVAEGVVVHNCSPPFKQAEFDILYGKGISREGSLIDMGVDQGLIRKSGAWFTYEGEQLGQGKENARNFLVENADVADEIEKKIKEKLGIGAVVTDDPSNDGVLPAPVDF
# Paired box protein Pax-8 = Paired box protein Pax-8 (Homo sapiens, UniProt Q06710); experiment: inhibitors of PAX8-driven TPO luciferase reporter, dose response, RMG-I cells, cherry-pick (AID 687027); type: functional, cell-based;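 also: luciferase reporter driven by Pax8 target thyroperoxidase promoter measured by SteadyGlo luminescence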
# [16] = non-specific cell cytotoxicity, dose response, cytotoxicity control for PAX8 inhibitor project, plate reader, dry powder samples (AID 743021); type: functional, cell-based
# [17] = target: G-protein coupled receptor 55 (Homo sapiens, UniProt Q9Y2T6); experiment: GPR55 antagonists blocking LPI-driven arrestin recruitment, primary screen, imaging, U2OS, beta-arrestin-GFP, LPI agonist (AID 2013); type: functional;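 also: antagonist potency measured as reduced agonist-driven arrestin aggregation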
# [18] = HEp-2 cell cytotoxicity, dose response, cytotoxicity control for RSV inhibitor project, HTS (AID 2410); type: functional; settings: human respiratory syncytial virus
# [19] = target: Intestinal-type alkaline phosphatase (Mus musculus, UniProt P24822); experiment: PubChem AID 488875; type: functional
# [20] = target: T6, Intestinal-type alkaline phosphatase (Homo sapiens, UniProt P09923); experiment: human intestinal alkaline phosphatase activators, dose response, biochemical, luminescence, uHTS hits (AID 463120); type: functional
# T6 sequence (P09923 whole entry): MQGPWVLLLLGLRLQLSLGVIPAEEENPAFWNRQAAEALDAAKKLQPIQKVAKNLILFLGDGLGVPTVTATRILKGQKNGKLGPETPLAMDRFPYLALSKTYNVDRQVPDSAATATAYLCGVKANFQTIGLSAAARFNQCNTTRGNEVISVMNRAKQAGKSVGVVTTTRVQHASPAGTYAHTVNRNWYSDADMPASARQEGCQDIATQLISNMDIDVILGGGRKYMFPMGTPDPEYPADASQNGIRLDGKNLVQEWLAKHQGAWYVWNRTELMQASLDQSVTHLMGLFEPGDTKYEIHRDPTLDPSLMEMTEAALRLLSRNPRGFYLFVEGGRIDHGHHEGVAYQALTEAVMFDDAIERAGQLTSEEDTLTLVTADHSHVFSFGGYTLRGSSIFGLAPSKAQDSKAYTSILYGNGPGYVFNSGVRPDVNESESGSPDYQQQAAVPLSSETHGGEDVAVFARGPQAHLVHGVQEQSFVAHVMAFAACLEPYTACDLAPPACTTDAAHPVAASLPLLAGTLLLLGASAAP
# [21] = target: T6, Intestinal-type alkaline phosphatase; experiment: human IAP activators, dose response, biochemical, luminescent, uHTS hits, set 2 (AID 488817); type: functional;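 also: potency of activators that raise enzyme activity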
# [22] = target: T7, Alkaline phosphatase, tissue-nonspecific isozyme (Homo sapiens, UniProt P05186); experiment: TNAP enzyme activators, dose response, selectivity assay for human IAP activator project, biochemical, TNAP isozyme, human IAP uHTS hits (AID 488886); type: functional;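 also: potency of compounds raising TNAP activity as a selectivity check on IAP activators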
# T7 sequence (P05186 whole entry): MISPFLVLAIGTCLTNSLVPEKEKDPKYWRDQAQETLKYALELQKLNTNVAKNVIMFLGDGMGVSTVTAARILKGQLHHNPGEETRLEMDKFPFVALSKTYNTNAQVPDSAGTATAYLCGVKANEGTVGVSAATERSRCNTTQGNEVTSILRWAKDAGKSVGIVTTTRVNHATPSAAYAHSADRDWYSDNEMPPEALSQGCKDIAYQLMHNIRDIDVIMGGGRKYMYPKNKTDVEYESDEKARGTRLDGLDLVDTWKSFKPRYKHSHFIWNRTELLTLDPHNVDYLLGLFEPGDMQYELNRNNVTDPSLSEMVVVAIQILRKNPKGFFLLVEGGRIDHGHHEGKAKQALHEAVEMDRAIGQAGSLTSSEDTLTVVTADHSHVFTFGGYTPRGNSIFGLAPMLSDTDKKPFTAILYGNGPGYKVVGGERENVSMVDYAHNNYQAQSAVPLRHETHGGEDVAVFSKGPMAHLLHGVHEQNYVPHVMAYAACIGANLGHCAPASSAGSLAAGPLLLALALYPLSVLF
# Caspase-3 = target: T8, Caspase-3 (Homo sapiens, UniProt P42574); experiment: procaspase-3 activators, dose response, biochemical, absorbance (AID 489014)
# T8 sequence (P42574 whole entry): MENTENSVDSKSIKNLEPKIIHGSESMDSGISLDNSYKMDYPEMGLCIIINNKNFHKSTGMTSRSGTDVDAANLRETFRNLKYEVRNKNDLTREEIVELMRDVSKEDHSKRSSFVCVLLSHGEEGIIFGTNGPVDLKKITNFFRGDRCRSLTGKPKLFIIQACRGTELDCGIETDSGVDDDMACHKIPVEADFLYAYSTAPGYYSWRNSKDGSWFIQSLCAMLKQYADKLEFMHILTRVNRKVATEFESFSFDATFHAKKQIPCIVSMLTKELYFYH
# Caspase-7 = Caspase-7 (Homo sapiens, UniProt P55210); experiment: procaspase-7 activators, dose response, counter-screen for procaspase-3 activator project, biochemical, absorbance (AID 489013)
# cells = type: functional
# [23] = target: T9, Polyadenylate-binding protein 1 (Homo sapiens, UniProt P11940); experiment: PABP1 MLLE–PAM2 interaction inhibitors, dose response, miRNA deadenylation inhibitor project, biochemical, fluorescence polarization, Cy5-PAM2 peptide, secondary (AID 602260); type: functional; settings: read-out: IC50_Mean
# T9 sequence (P11940 whole entry): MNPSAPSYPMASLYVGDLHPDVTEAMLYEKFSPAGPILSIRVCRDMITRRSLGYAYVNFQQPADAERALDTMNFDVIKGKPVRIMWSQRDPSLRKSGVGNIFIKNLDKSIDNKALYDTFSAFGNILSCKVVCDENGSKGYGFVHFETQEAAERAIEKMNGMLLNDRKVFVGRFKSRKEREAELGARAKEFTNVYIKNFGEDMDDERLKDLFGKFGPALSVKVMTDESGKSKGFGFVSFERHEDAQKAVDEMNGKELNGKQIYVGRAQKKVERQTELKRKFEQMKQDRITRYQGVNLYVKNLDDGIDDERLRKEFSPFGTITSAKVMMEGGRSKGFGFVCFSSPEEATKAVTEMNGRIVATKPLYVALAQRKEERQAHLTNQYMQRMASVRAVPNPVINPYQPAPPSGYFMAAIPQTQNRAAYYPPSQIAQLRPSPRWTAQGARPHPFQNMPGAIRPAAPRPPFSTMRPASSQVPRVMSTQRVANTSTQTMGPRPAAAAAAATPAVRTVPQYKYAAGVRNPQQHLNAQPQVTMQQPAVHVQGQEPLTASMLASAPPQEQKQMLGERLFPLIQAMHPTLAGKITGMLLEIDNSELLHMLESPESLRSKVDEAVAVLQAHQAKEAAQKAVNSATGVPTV
# [24] = target: T9, Polyadenylate-binding protein 1; experiment: PABP1 MLLE–PAM2 binding inhibitor potency, dose response, biochemical, fluorescence polarization, FITC-PAM2 peptide (AID 602259); type: functional; settings: read-out: IC50_Mean
# T1 sequence (Q00975 whole entry): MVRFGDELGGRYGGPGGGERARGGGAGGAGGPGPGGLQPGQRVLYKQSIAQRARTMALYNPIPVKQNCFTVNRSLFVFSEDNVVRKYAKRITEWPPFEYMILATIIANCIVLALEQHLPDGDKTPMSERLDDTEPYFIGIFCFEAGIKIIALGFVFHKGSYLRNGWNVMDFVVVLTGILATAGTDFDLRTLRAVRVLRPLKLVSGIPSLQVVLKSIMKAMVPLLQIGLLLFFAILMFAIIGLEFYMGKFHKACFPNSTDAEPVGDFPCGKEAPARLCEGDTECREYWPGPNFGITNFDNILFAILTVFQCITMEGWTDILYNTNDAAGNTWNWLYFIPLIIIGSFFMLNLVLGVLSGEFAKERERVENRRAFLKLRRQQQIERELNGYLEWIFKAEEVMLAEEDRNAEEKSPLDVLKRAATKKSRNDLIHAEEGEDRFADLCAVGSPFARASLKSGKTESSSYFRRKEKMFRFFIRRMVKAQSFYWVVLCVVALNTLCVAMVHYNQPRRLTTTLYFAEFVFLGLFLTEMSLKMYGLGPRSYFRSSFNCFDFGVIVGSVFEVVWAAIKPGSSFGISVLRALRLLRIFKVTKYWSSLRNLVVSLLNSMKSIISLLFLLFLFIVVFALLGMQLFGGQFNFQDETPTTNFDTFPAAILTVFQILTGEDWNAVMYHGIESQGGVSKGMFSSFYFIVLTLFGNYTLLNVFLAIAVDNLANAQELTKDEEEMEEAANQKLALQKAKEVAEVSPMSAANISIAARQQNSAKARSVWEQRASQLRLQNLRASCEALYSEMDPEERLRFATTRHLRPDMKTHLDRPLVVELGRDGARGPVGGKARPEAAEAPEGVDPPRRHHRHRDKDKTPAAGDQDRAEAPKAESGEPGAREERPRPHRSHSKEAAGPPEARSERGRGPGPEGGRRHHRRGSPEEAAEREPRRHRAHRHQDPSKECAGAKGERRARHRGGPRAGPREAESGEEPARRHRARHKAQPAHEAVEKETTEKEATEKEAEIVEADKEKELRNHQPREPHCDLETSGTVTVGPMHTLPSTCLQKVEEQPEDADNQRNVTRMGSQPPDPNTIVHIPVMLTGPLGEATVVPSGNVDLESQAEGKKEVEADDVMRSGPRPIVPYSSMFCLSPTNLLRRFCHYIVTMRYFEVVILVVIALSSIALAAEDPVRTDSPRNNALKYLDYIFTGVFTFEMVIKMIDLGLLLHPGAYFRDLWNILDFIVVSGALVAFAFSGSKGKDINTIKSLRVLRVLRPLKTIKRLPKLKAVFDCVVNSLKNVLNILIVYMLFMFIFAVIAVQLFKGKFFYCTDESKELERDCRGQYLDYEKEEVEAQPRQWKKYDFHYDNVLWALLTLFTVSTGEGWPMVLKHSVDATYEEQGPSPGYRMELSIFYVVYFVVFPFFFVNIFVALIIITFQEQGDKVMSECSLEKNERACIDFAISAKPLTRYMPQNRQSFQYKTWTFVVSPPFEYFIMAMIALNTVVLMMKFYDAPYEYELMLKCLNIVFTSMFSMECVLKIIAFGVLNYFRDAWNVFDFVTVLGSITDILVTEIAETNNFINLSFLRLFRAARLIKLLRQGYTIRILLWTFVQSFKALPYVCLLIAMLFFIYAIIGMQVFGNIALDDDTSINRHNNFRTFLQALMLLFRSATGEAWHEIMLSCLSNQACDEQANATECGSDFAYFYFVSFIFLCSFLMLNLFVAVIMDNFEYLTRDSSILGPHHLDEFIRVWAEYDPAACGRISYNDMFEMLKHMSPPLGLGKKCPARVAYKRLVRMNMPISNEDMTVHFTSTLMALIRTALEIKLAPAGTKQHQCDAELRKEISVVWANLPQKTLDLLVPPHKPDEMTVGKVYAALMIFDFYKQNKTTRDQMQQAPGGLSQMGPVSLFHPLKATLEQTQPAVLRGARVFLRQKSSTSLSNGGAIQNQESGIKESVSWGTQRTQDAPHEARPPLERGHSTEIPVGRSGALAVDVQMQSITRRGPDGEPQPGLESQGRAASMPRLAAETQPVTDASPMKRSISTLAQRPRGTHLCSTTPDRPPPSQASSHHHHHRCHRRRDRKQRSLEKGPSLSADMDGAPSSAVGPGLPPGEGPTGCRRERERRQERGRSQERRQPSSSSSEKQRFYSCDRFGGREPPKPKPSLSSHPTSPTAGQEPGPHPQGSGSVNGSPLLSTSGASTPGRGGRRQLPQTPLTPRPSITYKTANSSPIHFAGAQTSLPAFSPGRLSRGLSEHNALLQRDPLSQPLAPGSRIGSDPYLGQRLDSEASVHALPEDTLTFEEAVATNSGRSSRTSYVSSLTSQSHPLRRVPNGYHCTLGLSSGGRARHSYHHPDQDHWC
# T1 sequence (Q02410 whole entry): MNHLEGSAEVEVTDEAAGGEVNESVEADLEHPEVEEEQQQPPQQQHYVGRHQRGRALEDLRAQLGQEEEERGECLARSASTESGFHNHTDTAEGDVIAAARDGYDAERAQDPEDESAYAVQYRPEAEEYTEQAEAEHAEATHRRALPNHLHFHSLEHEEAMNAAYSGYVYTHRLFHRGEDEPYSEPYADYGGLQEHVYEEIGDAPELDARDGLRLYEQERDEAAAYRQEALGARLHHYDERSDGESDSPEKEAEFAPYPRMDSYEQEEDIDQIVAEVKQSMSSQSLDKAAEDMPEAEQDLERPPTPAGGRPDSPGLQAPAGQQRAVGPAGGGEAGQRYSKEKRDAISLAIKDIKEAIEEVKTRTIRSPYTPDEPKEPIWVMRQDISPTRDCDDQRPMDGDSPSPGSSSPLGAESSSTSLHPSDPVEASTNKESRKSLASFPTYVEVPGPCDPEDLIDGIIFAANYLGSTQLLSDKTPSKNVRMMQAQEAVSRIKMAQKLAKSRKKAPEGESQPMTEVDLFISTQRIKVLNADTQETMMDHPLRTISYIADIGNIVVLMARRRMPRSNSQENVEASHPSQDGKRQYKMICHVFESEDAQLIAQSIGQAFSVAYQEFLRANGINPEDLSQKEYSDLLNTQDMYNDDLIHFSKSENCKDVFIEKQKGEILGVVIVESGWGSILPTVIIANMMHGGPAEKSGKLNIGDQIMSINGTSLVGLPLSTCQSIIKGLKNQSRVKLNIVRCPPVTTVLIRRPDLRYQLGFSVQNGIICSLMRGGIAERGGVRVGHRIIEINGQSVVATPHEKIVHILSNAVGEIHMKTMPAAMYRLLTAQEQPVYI
compound,measurement,setting,value
CC(=O)c1cccc(NC(=O)c2cc(-c3ccc(C)cc3)on2)c1,IC50,[1],15.5 µM (active)
same,IC50,[2],> 50 µM (inactive)
CCOc1ccc2nc(O)c(CN(Cc3ccco3)C(CC)c3nnnn3Cc3ccccc3)cc2c1 (stereo unspecified),EC50,[3],> 100 µM (inactive)
same,IC50,H9c2,> 79 µM (inactive)
COc1ccc(N2CCN(CCCNC(=O)Cn3c(=O)c4cccn4c4cc(Br)cnc43)CC2)cc1,IC50,Mu-type opioid receptor,10.3 µM (inactive)
same,IC50,[4],> 32 µM (inactive)
same,IC50,[5],3.05 µM (active)
same,IC50,[6],0.693 µM (active)
COc1ccc(N(C(=O)CCl)C(C(=O)NCCc2ccccc2)c2cccs2)cc1 (stereo unspecified),EC50,BJ [7],1.22 µM (active)
same,EC50,BJ [8],2.97 µM (inconclusive)
same,EC50,[9],1.1 µM (active)
same,EC50,[10],0.986 µM (active)
same,EC50,BJ [11],4.61 µM (active)
same,EC50,[12],2.62 µM (active)
same,CC50,[13],0.43 µM (active)
same,AC50,[14],2.64 µM (active)
same,EC50,BJ [15],2.69 µM (active)
same,EC50,Protein RecA,0.327 µM (active)
same,AC50,Paired box protein Pax-8,2.44 µM (active)
same,AC50,[16],4.64 µM (active)
Nc1ncc(-c2nnnn2-c2ccc(Cl)cc2)c(-c2ccc(Cl)cc2)n1,IC50,[17],4.61 µM (active)
COc1ccccc1CCNC(=O)C1CCN(c2nnc(C)c3c(C)n(-c4ccc(C)cc4)nc23)CC1,CC50,[18],17.4 µM (active)
same,EC50,[19],> 100 µM (inactive)
same,EC50,[20],23.1 µM (active)
same,EC50,[21],65.5 µM (active)
same,EC50,[22],53.2 µM (active)
COc1ccc(C2=NC(=O)/C(=C\c3cc(OC)c(OC)c(OC)c3)O2)cc1,EC50,Caspase-3,0.42 µM (active)
same,EC50,Caspase-7,> 85.2 µM (inactive)
same,IC50,cells,1.18 µM (active)
same,IC50,[23],> 66 µM (inactive)
same,IC50,[24],> 66 µM (inactive)
